# What was measured:
# HT29 cells [1] = assay: Production of labeled CO2 (glucose and glutamine oxidation); type: cell-based, human; details: HT29 cells after HMGB1 treatment
# ATP synthase = assay: Respiratory chain complex activities in mitochondrial fractions; type: cell-based, human; details: colorectal cancer cell lines; HMGB1 80 nM, 24 h
# Experimental: (§1) Enzymatic activities of respiratory chain complexes, glycolytic proteins and malic enzyme were determined in subcellular fractions as previously described (Kaminski, M. M. et al. T cell activation is driven by an ADP-dependent glucokinase linking enhanced glycolysis with mitochondrial reactive oxygen species generation. Cell reports 2, 1300-1315 (2012).Bruncko, M. et al. Naphthamidine urokinase plasminogen activator inhibitors with improved pharmacokinetic properties. Bioorganic & medicinal chemistry letters 15, 93-98, (2005)) using a computer-tuneable spectrophotometer (Spectramax Plus Microplate Reader, Molecular Devices; Sunny Vale, Calif., USA) operating in the dual wavelength mode; samples were analyzed in temperature-controlled 96-well plates in a final volume of 300 μl. Activity of ME1 was recorded in presence of increasing amounts of malic acid (0.02, 0.05, 0.1, 0.2, 0.5, 1, 2.5 mM). Vmax and Km were calculated using a Hanes-Woolf plot. In the presence of high substrate levels the Km for malic acid was similar in all three tested cell lines (SW480: 0.32 mM, HCT116: 0.30 mM, HT29: 0.31 mM). Vmax (mU/mg protein) values were 3.38 (SW480, 0.5-5.0 mM malic acid), 5.77 (HCT116, 0.5-5.0 mM malic acid) and 3.68 (HT29, 0.5-5.0 mM malic acid) and 1.68 (SW480, 0.02-0.2 mM malic acid), 3.24 (HCT116, 0.02-0.2 mM malic acid) and 1.89 (HT29, 0.02-0.2 mM malic acid). Two isoforms of ME1, mitochondrial (NAD(P)+dependent) ME3 and mitochondrial (NAD+dependent) ME2, had very low or no detectable activities (data not shown).
# (§2) Cells were lysed in lysis buffer P (20 mM Tris-HCl (pH 7.4), 137 mM NaCl, 10% (v/v) glycerine, 1% Triton X-100, 2 mM EDTA, 100 mM phenylmethylsulfonyl fluoride and protease inhibitors (Complete mini from Roche). Lysates were centrifuged at 14,000×g (10 min) at 4° C. Total protein was measured by the Bradford (Bio-Rad) method. Soluble protein was resolved by SDS-PAGE, blotted onto nitrocellulose and incubated with one of the following antibodies: mouse monoclonal anti-β-actin (1:3,000, Sigma-Aldrich), rabbit anti PK M2 (1:1,000, Cell Signaling), rabbit anti-malic enzyme 1 (1:1,000, abcam). Appropriate secondary antibodies (1:3,000, horse-radish peroxidase-conjugated) were from Bio-Rad. Visualization was done by enhanced chemiluminescence technique (GE-Healthcare). Mitochondrial fractions were extracted using the ApoAlert Cell Fractionation Kit (Clontech) as described earlier (Gdynia, G. et al. BLOC1S2 interacts with the HIPPI protein and sensitizes NCH89 glioblastoma cells to apoptosis. Apoptosis: an international journal on programmed cell death 13, 437-447, (2008)).
# complex I to III = assay: as above; type: cell-based, human; details: colorectal cancer cell lines; HMGB1 80 nM, 24 h
# Experimental: as §1, §2
# [2] = test system: cytochrome c oxidase (COX); assay: as above; type: cell-based, human
# Experimental: as §1, §2
# complex II and III = assay: as above; type: cell-based, human; details: HMGB1 80 nM, 24 h
# Experimental: as §1, §2
# [3] = test system: SW480 colorectal cancer cells; assay: Crystal violet cytotoxicity assay; type: cell-based; details: 72 h
# Experimental: (§3) Human colon carcinoma cell lines SW480, HCT116, HT29 and Caco2, the human glioblastoma cell line U251MG and the Natural killer cell line NK-92 Cl were purchased from ATCC. Cell lines were regularly tested for contamination by multiplex PCR performed in the Genomics and Proteomics Core Facility 2 (DKFZ, Heidelberg, Germany). For experiments, cells were cultured for no more than 10 passages. Rho zero cells were generated as described earlier 1. (Gdynia, G. et al. Danger signaling protein HMGB1 induces a distinct form of cell death accompanied by formation of giant mitochondria. Cancer research 70, 8558-8568). Cells used in the experiments were cultured in RPMI (#1640, colon carcinomas, NK cells) or DMEM high glucose (#41965-039, glioblastoma cells) medium. Rho zero cells were generated as described earlier (Gdynia, G. et al. ibd.). Briefly, cells were cultured in RPMI medium (10% FCS, 1% P/S) supplemented with 250 ng/ml ethidiumbromide, 50 μg/ml L-pyruvate and 5 mg/ml uridine over a period of 12 weeks. For cytotoxicity measurements, cells were cultured in 96-well plates, treated with recombinant human HMGB1 protein (Sigma-Aldrich®), glycyrrhizinic acid ((3β, 18α)-30-hydroxy-11, 30-dioxoolean-12-en-3-yl 2-O-β-D-glucopyranuronosyl-β-D-glucopyranosiduronic acid)) (Sigma-Aldrich®), 10 μM (non-toxic) or 100 μM (cytotoxic) P-M2tide (aa sequence: GGAVDDDpYAQFANGG; #BML-P239-0001; Enzo Life Sciences) or 100 μM ML-265 (Cayman Chemical), then cell viability was assessed by crystal violet staining (Gillies, R. J., Didier, N. & Denton, M. Determination of cell number in monolayer cultures. Analytical biochemistry 159, 109-113 (1986)). Malic enzyme 1 knock-down was performed with 40 nM siRNA using lipofectamine in 6-well plates followed by treatment with 80 nM HMGB1 for 72 h. Sequences of siRNA were: ME1, 5′-[…]-3′ and scrambled control 5′-CCUGCAGUACUUCAAGCGGtt-3′. PKM2 siRNA was from Santa Cruz. A nonspecific siRNA served as control (Dharmacon, Schwerte, Germany). For overexpression of PKM2 or ME1, cells were transfected with pCMV-PKM2 (Sino Biological Inc., Beijing, China) or pCMV-ME1 (OriGene, Rockville, Md., USA) using Lipofectamine 2000. For cytotoxicity measurements confluent cells were cultured in 96-well plates if not otherwise indicated. Cytotoxic activity of supernatants from stimulated NK cells was assessed in 96-well plates for 3 days with RPMI medium as reference. Recombinant human HMGB1 (10 ng, Sigma) suited as positive control. For mass isotopomer assays, cells were cultured in glucose- or glutamine-free medium supplemented with either uniformly labeled (U)-13C-D-glucose or U-13C-glutamine (Sigma-Aldrich®).
# [4] = test system: HCT116 colorectal cancer cells; assay: Crystal violet cytotoxicity assay; type: cell-based; details: 72 h
# Experimental: as §3
# HT29 cells [5] = assay: Crystal violet cytotoxicity assay; type: cell-based
# Experimental: as §3
# [6] = NK cell derived HMGB1 approx. 16 nM, recombinant human HMGB1 80 nM
substance,measurement,setting,value
"HMGB1: recombinant human HMGB1 protein (Sigma-Aldrich); High Mobility Group Box 1 polypeptide, human, SEQ ID NO: 4",decrease of glucose oxidation,HT29 cells [1],~50%
same,increase of glutamine oxidation,HT29 cells [1],~35%
same,ATP synthase activity,ATP synthase,not diminished
same,electron flow from complex I to III,complex I to III,unchanged
same,COX activity,"[2]; colorectal cancer cell lines, HMGB1 80 nM, 24 h",significantly lower activity levels
same,COX activity,"[2]; primary tumor tissue slices, HMGB1 160 nM, 72 h",potent inhibition
same,coupled complex II and III activity,complex II and III; HCT116,maintained or even upregulated
same,coupled complex II and III activity,complex II and III; HT29,maintained or even upregulated
same,coupled complex II and III activity,complex II and III; SW480,decreased
same,cell death (cytotoxicity),[3]; [6],efficiently killed
same,sensitivity of respiratory chain deficient (ρ0) cells to HMGB1,"[3]; ρ0 SW480, HMGB1 160 nM",almost completely resistant
same,cell death (cytotoxicity),[4]; [6],efficiently killed
same,sensitivity of respiratory chain deficient (ρ0) cells to HMGB1,"[4]; ρ0 HCT116, HMGB1 160 nM",almost completely resistant
same,sensitivity of cells to HMGB1,HT29 cells [5]; low to intermediate HMGB1 concentrations (16 to 80 nM),resistant
same,sensitivity towards HMGB1 cytotoxicity after down-regulation of ME1,"HT29 cells [5]; siRNA knock-down of ME1, HMGB1 80 nM, 72 h",sensitization
